The conditions of series [1]: 101 kPa, Liquid; for viscosity: Capillary tube (Ostwald / Ubbelohde) method.
Series [2] is described as follows: xn = mol fraction of the nth substance listed. Particulars: 101 kPa, Liquid, x1 = 1; for viscosity: Capillary tube (Ostwald / Ubbelohde) method.

This passage reports mass density and viscosity results from the NIST ThermoML archive (doi:10.1021/je201116t).

± gives the expanded uncertainty stated by the source.

In the case of `CO` [methanol], the mass density (usually mass per unit of volume) in series [1] (298.15 K) came to 786.686 ± 1.4 kg/m3; in series [1] (303.15 K), 781.993 ± 1.4 kg/m3; in series [1] (308.15 K), 777.249 ± 1.4 kg/m3; in series [1] (313.15 K), 772.475 ± 1.5 kg/m3. Moreover, the viscosity (usually the resistance of a fluid to flow) was found to be 0.558 ± 0.0068 mPa·s in series [1] (298.15 K), 0.5261 ± 0.0065 mPa·s in series [1] (303.15 K), 0.4966 ± 0.0061 mPa·s in series [1] (308.15 K) and 0.4702 ± 0.0058 mPa·s in series [1] (313.15 K).

Consider `CCO` [ethanol], for which the mass density came out at 785.499 ± 1.4 kg/m3 in series [1] (298.15 K), 781.197 ± 1.4 kg/m3 in series [1] (303.15 K), 776.853 ± 1.4 kg/m3 in series [1] (308.15 K) and 772.468 ± 1.5 kg/m3 in series [1] (313.15 K). Besides, the viscosity turned out to be 1.091 ± 0.013 mPa·s in series [1] (298.15 K), 0.9986 ± 0.012 mPa·s in series [1] (303.15 K), 0.9139 ± 0.011 mPa·s in series [1] (308.15 K) and 0.8387 ± 0.01 mPa·s in series [1] (313.15 K).

In the case of `CCCO` [propan-1-ol] + CCC(=O)[O-].CC[NH+]1CCNCC1, the viscosity in series [2] (298.15 K) came out at 1.941 ± 0.024 mPa·s; in series [2] (303.15 K), 1.728 ± 0.021 mPa·s; in series [2] (308.15 K), 1.545 ± 0.019 mPa·s; in series [2] (313.15 K) it was 1.385 ± 0.017 mPa·s. Moreover, the mass density in series [2] (298.15 K) is 799.557 ± 1.3 kg/m3; in series [2] (303.15 K), 795.543 ± 1.3 kg/m3; in series [2] (308.15 K), 791.479 ± 1.4 kg/m3; in series [2] (313.15 K), 787.371 ± 1.4 kg/m3.

Take `CCCCO` [butan-1-ol] + CCC(=O)[O-].CC[NH+]1CCNCC1: the viscosity was found to be 2.577 ± 0.032 mPa·s in series [2] (298.15 K), 2.272 ± 0.029 mPa·s in series [2] (303.15 K), 2.01 ± 0.025 mPa·s in series [2] (308.15 K) and 1.786 ± 0.023 mPa·s in series [2] (313.15 K). Besides, the mass density in series [2] (298.15 K) was determined as 805.814 ± 1.3 kg/m3; in series [2] (303.15 K) it was 801.996 ± 1.3 kg/m3; in series [2] (308.15 K) it was 798.13 ± 1.4 kg/m3; in series [2] (313.15 K), 794.226 ± 1.4 kg/m3.

With `CCC(=O)[O-].CC[NH+]1CCNCC1` [N-ethylpiperazinium propionate], the mass density in series [1] (298.15 K) is 1008.36 ± 1.2 kg/m3; in series [1] (303.15 K) it was 1004.38 ± 1.2 kg/m3; in series [1] (308.15 K), 1000.33 ± 1.2 kg/m3; in series [1] (313.15 K), 996.237 ± 1.2 kg/m3. The viscosity in series [1] (298.15 K) was 243.49 ± 7.6 mPa·s; in series [1] (303.15 K) it was 164.81 ± 4.6 mPa·s; in series [1] (308.15 K), 113.44 ± 2.7 mPa·s; in series [1] (313.15 K), 80.93 ± 1.8 mPa·s.

Regarding `CCCO` [propan-1-ol], the mass density in series [1] (298.15 K) is on record as 799.557 ± 1.3 kg/m3; in series [1] (303.15 K) it was 795.543 ± 1.3 kg/m3; in series [1] (308.15 K), 791.479 ± 1.4 kg/m3; in series [1] (313.15 K), 787.371 ± 1.4 kg/m3. Also, the viscosity is on record as 1.941 ± 0.024 mPa·s in series [1] (298.15 K), 1.728 ± 0.021 mPa·s in series [1] (303.15 K), 1.545 ± 0.019 mPa·s in series [1] (308.15 K) and 1.385 ± 0.017 mPa·s in series [1] (313.15 K).

For `CCCCO` [butan-1-ol], the mass density in series [1] (298.15 K) was 805.814 ± 1.3 kg/m3; in series [1] (303.15 K), 801.996 ± 1.3 kg/m3; in series [1] (308.15 K), 798.13 ± 1.4 kg/m3; in series [1] (313.15 K), 794.226 ± 1.4 kg/m3. For the same compound, the viscosity in series [1] (298.15 K) was 2.577 ± 0.032 mPa·s; in series [1] (303.15 K) it was 2.272 ± 0.029 mPa·s; in series [1] (308.15 K), 2.01 ± 0.025 mPa·s; in series [1] (313.15 K), 1.786 ± 0.023 mPa·s.

In the case of `CCO` [ethanol] + CCC(=O)[O-].CC[NH+]1CCNCC1, the viscosity stood at 1.091 ± 0.013 mPa·s in series [2] (298.15 K), 0.9986 ± 0.012 mPa·s in series [2] (303.15 K), 0.9139 ± 0.011 mPa·s in series [2] (308.15 K) and 0.8387 ± 0.01 mPa·s in series [2] (313.15 K). Besides, the mass density is recorded as 785.499 ± 1.4 kg/m3 in series [2] (298.15 K), 781.197 ± 1.4 kg/m3 in series [2] (303.15 K), 776.853 ± 1.4 kg/m3 in series [2] (308.15 K) and 772.468 ± 1.5 kg/m3 in series [2] (313.15 K).

As for `CO` [methanol] + CCC(=O)[O-].CC[NH+]1CCNCC1, the viscosity in series [2] (298.15 K) worked out at 0.558 ± 0.0068 mPa·s; in series [2] (303.15 K) it was 0.5261 ± 0.0065 mPa·s; in series [2] (308.15 K) it was 0.4966 ± 0.0061 mPa·s; in series [2] (313.15 K) it was 0.4702 ± 0.0058 mPa·s. Moreover, the mass density in series [2] (298.15 K) stood at 786.686 ± 1.4 kg/m3; in series [2] (303.15 K), 781.993 ± 1.4 kg/m3; in series [2] (308.15 K), 777.249 ± 1.4 kg/m3; in series [2] (313.15 K), 772.475 ± 1.5 kg/m3.
